# Target: xanthine oxidase (Bos taurus (Bovine), UniProt P80457)
# Settings: read-out: Xanthine Oxidase Inhibition Activity (IC50); xanthine oxidase sourced from milk, hypoxanthine substrate, 0.1 M Tris-HCl pH 7.5, 30° C.
# Experimental: The inhibition of the activity of xanthine oxidase (XO) is tested through a coupled enzymatic reaction of xanthine oxidase, horseradish peroxidase (HRP) and a substrate thereof. First, xanthine oxidase oxidizes hypoxanthine to produce xanthine and hydrogen peroxide, and further oxidizes xanthine to produce uric acid and hydrogen peroxide. […] The fluorescence intensity of resorufin is determined by using a fluorescence microplate, which is in direct proportion to the activity of xanthine oxidase.
# A certain amount of a test compound and a control compound, febuxostat (by Beijing Lianben Pharm-chemicals Tech. Co., Ltd.) were dissolved in DMSO (by Sinopharm Chemical Reagent Co., Ltd.). A 2.5-fold serial dilution of the test compound was diluted with DMSO in a 96-well polypropylene reaction plate (by Greiner Bio One), so as to obtain a 200-fold dilution. The solution was further diluted in ultrapure water to obtain a 3-fold serial dilution. […]
# 9 μL reaction solution A and 9 μL 3-fold serial dilution of the test compound were mixed in a 96-well test plate (by Greiner Bio One), placed on a flat plate type oscillator, and mixed at 30° C. for 30 min at 100 rpm. […] The fluorescence intensity at 530 nm exciting light and 590 nm emitted light was determined by using a fluorescence microplate (Perkin Elmer Vitor X4).
# Sequence of xanthine oxidase (P80457 whole entry): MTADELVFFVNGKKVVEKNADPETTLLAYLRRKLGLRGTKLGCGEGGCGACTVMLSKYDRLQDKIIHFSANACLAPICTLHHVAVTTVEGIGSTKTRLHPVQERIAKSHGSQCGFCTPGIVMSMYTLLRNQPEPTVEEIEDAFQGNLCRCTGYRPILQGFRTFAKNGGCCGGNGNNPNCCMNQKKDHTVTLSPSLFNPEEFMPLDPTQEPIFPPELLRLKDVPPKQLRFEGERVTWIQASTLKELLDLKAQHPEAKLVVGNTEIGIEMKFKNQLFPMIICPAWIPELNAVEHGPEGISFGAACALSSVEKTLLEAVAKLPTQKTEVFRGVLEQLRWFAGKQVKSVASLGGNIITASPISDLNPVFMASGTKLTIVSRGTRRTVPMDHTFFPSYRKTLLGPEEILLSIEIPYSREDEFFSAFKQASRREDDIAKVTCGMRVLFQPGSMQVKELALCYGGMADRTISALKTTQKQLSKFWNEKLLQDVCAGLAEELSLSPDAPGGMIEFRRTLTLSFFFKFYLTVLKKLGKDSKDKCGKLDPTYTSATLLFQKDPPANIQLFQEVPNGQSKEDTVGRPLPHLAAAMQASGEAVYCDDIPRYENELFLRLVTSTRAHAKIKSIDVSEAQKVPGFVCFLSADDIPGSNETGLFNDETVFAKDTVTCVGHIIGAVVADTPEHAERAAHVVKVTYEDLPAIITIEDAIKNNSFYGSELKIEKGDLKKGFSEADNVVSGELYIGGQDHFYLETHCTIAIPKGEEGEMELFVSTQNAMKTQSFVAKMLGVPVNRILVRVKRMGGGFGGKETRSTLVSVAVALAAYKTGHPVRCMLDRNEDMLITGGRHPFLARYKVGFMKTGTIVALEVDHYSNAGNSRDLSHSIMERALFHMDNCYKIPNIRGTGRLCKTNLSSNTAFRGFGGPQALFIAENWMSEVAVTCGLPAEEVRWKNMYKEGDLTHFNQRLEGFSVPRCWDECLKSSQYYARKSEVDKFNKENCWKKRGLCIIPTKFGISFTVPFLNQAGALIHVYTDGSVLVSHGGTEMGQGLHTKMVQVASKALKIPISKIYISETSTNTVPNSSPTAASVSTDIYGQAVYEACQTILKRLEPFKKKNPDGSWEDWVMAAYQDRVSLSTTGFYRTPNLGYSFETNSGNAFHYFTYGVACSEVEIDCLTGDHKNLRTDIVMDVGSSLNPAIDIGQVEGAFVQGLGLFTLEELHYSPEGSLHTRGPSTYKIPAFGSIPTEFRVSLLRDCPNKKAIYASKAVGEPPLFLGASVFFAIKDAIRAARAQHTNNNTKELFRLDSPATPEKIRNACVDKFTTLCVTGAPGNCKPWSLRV
substance,measurement,value
2-[3-bromo-4-(aniline formyl)-phenyl]-4-methyl-selenazole-5-carboxylic acid [Compound 67],IC50,> 100 nM
